From patent US20180186742A1, “PICOLINAMIDES AS FUNGICIDES” (Dow AgroSciences LLC, priority 2017, published 2018)
Like-named read-outs stand apart in the source and are kept apart here.

Key:
Type in all cases: in vivo
Zymoseptoria tritici = assay: Leaf blotch of wheat (SEPTTR), disease control on wheat seedlings; conditions: low volume application at 121.5 g/H
In short: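 Z. tritici spores were inoculated onto wheat seedlings (Yuma, first leaf emerged) either before or after treatment. Treatment was an automated spray to run-off of acetone/Triton X-100 water solutions, or a track spray of EC formulations with 0.1% Trycol 5941. Plants were held in dew chambers at 20 °C and then a greenhouse at 20 °C. First-leaf severity (0–100%) was converted to percent control against untreated plants.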

Puccinia triticina = assay: Wheat brown rust (PUCCRT), disease control on wheat seedlings; conditions: low volume application at 121.5 g/H
In short: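 Compounds in acetone, diluted with nine volumes of water containing 110 ppm Triton X-100, sprayed to run-off on first-leaf Yuma wheat seedlings; track-spray tests used EC formulations with 0.1% Trycol 5941. Puccinia triticina spores applied before or after treatment. Overnight dark dew room at 22° C, 100% humidity, then greenhouse at 24° C.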

Phakopsora pachyrhizi = assay: Asian soybean rust (PHAKPA), disease control on soybean seedlings; conditions: High volume application at 25 ppm
Description: Technical grades of materials were dissolved in acetone, which were then mixed with nine volumes of water containing 0.011% Tween 20. The fungicide solutions were applied onto soybean seedlings using an automated booth sprayer to run-off. All sprayed plants were allowed to air dry prior to further handling.
Soybean plants (variety Williams 82) were grown in soil-less Metro mix, with one plant per pot. Two week old seedlings were used for testing. Plants were inoculated either 3 days prior to or 1 day after fungicide treatments. Plants were incubated for 24 h in a dark dew room at 22° C. and 100% relative humidity then transferred to a growth room at 23° C. for disease to develop. Disease severity was assessed on the sprayed leaves.

[1] = 24 h, 1 Day Protectant, read-out: SEPTTR disease control, 1DP, LV activity
[2] = 72 h, 3 Day Curative, read-out: SEPTTR disease control, 3DC, LV activity
[3] = 24 h, 1 Day Protectant, read-out: PUCCRT disease control, 1DP, LV activity
[4] = 72 h, 3 Day Curative, read-out: PUCCRT disease control, 3DC, LV activity
[5] = 24 h, 1 Day Protectant, read-out: PHAKPA 1DP disease control rating
[6] = 72 h, 3 Day Curative, read-out: PHAKPA 3DC disease control rating
[7] = 24 h, 1 Day Protectant, wheat leaf blotch, read-out: SEPTTR 1DP disease control, LV activity
[8] = 72 h, 3 Day Curative, wheat leaf blotch, read-out: SEPTTR 3DC disease control, LV activity
[9] = 24 h, 1 Day Protectant, wheat brown rust, read-out: PUCCRT 1DP disease control, LV activity
[10] = 72 h, 3 Day Curative, wheat brown rust, read-out: PUCCRT 3DC disease control, LV activity

| Structure (SMILES) | pest or weed control at 121.5 g/ha (Zymoseptoria tritici; [1]) [%] | pest or weed control at 121.5 g/ha (Zymoseptoria tritici; [2]) [%] | pest or weed control at 121.5 g/ha (Puccinia triticina; [3]) [%] | pest or weed control at 121.5 g/ha (Puccinia triticina; [4]) [%] | pest or weed control at 25 ppm (Phakopsora pachyrhizi; [5]) [%] | pest or weed control at 25 ppm (Phakopsora pachyrhizi; [6]) [%] | pest or weed control at 121.5 g/ha (Zymoseptoria tritici; [7]) [%] | pest or weed control at 121.5 g/ha (Zymoseptoria tritici; [8]) [%] | pest or weed control at 121.5 g/ha (Puccinia triticina; [9]) [%] | pest or weed control at 121.5 g/ha (Puccinia triticina; [10]) [%] |
| --- | --- | --- | --- | --- | --- | --- | --- | --- | --- | --- |
| COc1ccnc(C(=O)N[C@@H](C)C(=O)O[C@H](C)[C@H](c2ccc(F)cc2C)C2CCCCC2)c1OC(C)=O [Compound 191] | < 80 | < 80 | < 0 | < 80 | < 80 | < 0 | – | – | – | – |
| COc1ccnc(C(=O)N[C@@H](C)C(=O)O[C@@H](C)[C@H](c2ccc(F)cc2F)C(C)C)c1OC(C)=O [Compound 365] | – | – | – | – | > 80 | > 80 | > 80 | > 80 | > 80 | > 80 |
| COc1cc(F)ccc1[C@H](C(C)C)[C@H](C)OC(=O)[C@H](C)NC(=O)c1nccc(OC)c1OC(C)=O [Compound 232] | > 80 | < 80 | > 80 | > 80 | > 80 | > 80 | – | – | – | – |
| COCCC(=O)Oc1c(OC)ccnc1C(=O)NCC(=O)O[C@@H](C)[C@H](c1ccc(F)cc1C)C(C)C [Compound 350] | < 80 | < 80 | > 80 | > 80 | > 80 | > 80 | – | – | – | – |
| COc1cc(F)ccc1[C@H](C1CCC1)[C@H](C)OC(=O)[C@H](C)NC(=O)c1nccc(OC)c1OCOC(C)=O [Compound 236] | < 80 | < 80 | < 80 | < 80 | > 80 | < 80 | – | – | – | – |
| COc1ccnc(C(=O)N[C@@H](C)C(=O)O[C@@H](C)[C@H](c2cc(C)ccc2C)C(C)C)c1OC(C)=O [Compound 358] | < 80 | < 80 | > 80 | < 80 | > 80 | < 80 | – | – | – | – |
| CCC(C)[C@H](c1ccc(C)cc1C)[C@H](C)OC(=O)[C@H](C)NC(=O)c1nccc(OC)c1OCOC(C)=O (stereo partly drawn) [Compound 207] | < 80 | > 80 | > 80 | < 80 | > 80 | < 0 | – | – | – | – |
| COc1ccnc(C(=O)N[C@@H](C)C(=O)O[C@@H](C)[C@@H](c2ccc(C)cc2C)C2CCCCC2)c1OCOC(C)=O [Compound 206] | < 80 | < 80 | < 80 | < 0 | < 80 | < 0 | – | – | – | – |
| COc1ccnc(C(=O)N[C@@H](C)C(=O)O[C@@H](C)[C@H](c2ccc(C)cc2C)C(C)C)c1OC(C)=O [Compound 362] | > 80 | > 80 | > 80 | > 80 | > 80 | > 80 | – | – | – | – |
| COc1ccnc(C(=O)N[C@@H](C)C(=O)O[C@@H](C)[C@H](c2cc(F)ccc2C)C(C)C)c1OC(C)=O [Compound 361] | < 80 | < 80 | > 80 | < 80 | > 80 | > 80 | – | – | – | – |
| COc1cc(F)ccc1[C@@H](C1CCC1)[C@H](C)OC(=O)[C@H](C)NC(=O)c1nccc(OC)c1OC(C)=O [Compound 226] | < 80 | < 80 | < 80 | < 80 | < 80 | < 0 | – | – | – | – |
| COc1ccnc(C(=O)N[C@@H](C)C(=O)O[C@@H](C)[C@H](c2ccc(F)cc2)C(C)C)c1OC(C)=O [Compound 214] | > 80 | > 80 | > 80 | > 80 | > 80 | < 80 | – | – | – | – |
| COc1ccnc(C(=O)N[C@@H](CC(C)C)C(=O)O[C@@H](C)[C@H](c2ccc(F)cc2C)C(C)C)c1OC(C)=O [Compound 349] | < 80 | < 80 | > 80 | < 80 | > 80 | < 80 | – | – | – | – |
| COc1ccnc(C(=O)N[C@@H](C)C(=O)O[C@@H](C)[C@H](c2ccc(F)cc2C)C2CCCC2)c1OC(C)=O [Compound 184] | > 80 | > 80 | > 80 | > 80 | > 80 | < 80 | – | – | – | – |
| COc1ccnc(C(=O)N[C@@H](C)C(=O)O[C@@H](C)[C@@H](c2ccc(F)cc2F)C(C)C)c1OC(C)=O [Compound 368] | – | – | – | – | < 80 | < 80 | < 80 | < 80 | < 80 | < 0 |
| COc1ccnc2c(=O)n([C@@H](C)C(=O)O[C@@H](C)[C@@H](c3ccc(C)cc3C)C(C)C)c(=O)oc12 [Compound 208] | < 0 | < 80 | < 80 | < 80 | < 80 | < 0 | – | – | – | – |
| COc1ccc([C@H](C(C)C)[C@H](C)OC(=O)[C@H](C)NC(=O)c2nccc(OC)c2OC(C)=O)cc1 [Compound 383] | – | – | – | – | > 80 | < 80 | < 80 | < 80 | > 80 | < 80 |
| COc1ccnc(C(=S)N[C@@H](C)C(=O)O[C@@H](C)[C@@H](c2ccccc2)C2CCCC2)c1OC(C)=O [Compound 177] | < 80 | < 0 | < 80 | < 0 | > 80 | < 0 | – | – | – | – |
| COc1ccnc(C(=O)N[C@@H](C)C(=O)O[C@@H](C)[C@H](c2ccccc2OC(C)C)C(C)C)c1OC(C)=O [Compound 376] | – | – | – | – | > 80 | < 80 | < 80 | < 80 | > 80 | < 80 |
| COc1ccnc(C(=O)N[C@H](C(=O)O[C@@H](C)[C@H](c2ccc(F)cc2C)C(C)C)C(C)C)c1OC(C)=O [Compound 347] | > 80 | > 80 | > 80 | < 80 | > 80 | > 80 | – | – | – | – |
| COc1ccnc(C(=O)N[C@@H](C)C(=O)O[C@@H](C)[C@H](c2ccc(F)c(F)c2)C(C)C)c1OC(C)=O [Compound 244] | > 80 | < 80 | > 80 | > 80 | > 80 | < 80 | – | – | – | – |
| COc1ccnc(C(=O)N[C@@H](C)C(=O)O[C@@H](C)[C@H](c2ccc3c(c2)OCO3)C(C)C)c1OC(C)=O [Compound 380] | – | – | – | – | < 80 | < 80 | < 80 | < 80 | > 80 | > 80 |
| COc1ccnc(C(=O)N[C@@H](C)C(=O)O[C@@H](C)[C@H](c2ccc(C)c(F)c2)C(C)C)c1OC(C)=O [Compound 243] | < 0 | < 80 | > 80 | < 80 | > 80 | < 80 | – | – | – | – |
